Source: US12281119B2, “Imidazo[2,1-f][1,2,4]triazin-4-amine derivatives as TLR7 agonist” (BEIGENE, LTD., priority 2019, dated 2025)

Each molecule was assayed against T1, human TLR 8 protein (Homo sapiens, UniProt Q9NR97) (assay: TLR8 stimulation determined using HEK-Blue Detection). Settings: HEK-Blue hTLR8 cells, 16 hr, relative to Resiquimod or Motolimod maximum.
T1 construct: expressed in transfected cells; host or cells: HEK293 (HEK-Blue hTLR8)
T1 sequence (Q9NR97 27-1041): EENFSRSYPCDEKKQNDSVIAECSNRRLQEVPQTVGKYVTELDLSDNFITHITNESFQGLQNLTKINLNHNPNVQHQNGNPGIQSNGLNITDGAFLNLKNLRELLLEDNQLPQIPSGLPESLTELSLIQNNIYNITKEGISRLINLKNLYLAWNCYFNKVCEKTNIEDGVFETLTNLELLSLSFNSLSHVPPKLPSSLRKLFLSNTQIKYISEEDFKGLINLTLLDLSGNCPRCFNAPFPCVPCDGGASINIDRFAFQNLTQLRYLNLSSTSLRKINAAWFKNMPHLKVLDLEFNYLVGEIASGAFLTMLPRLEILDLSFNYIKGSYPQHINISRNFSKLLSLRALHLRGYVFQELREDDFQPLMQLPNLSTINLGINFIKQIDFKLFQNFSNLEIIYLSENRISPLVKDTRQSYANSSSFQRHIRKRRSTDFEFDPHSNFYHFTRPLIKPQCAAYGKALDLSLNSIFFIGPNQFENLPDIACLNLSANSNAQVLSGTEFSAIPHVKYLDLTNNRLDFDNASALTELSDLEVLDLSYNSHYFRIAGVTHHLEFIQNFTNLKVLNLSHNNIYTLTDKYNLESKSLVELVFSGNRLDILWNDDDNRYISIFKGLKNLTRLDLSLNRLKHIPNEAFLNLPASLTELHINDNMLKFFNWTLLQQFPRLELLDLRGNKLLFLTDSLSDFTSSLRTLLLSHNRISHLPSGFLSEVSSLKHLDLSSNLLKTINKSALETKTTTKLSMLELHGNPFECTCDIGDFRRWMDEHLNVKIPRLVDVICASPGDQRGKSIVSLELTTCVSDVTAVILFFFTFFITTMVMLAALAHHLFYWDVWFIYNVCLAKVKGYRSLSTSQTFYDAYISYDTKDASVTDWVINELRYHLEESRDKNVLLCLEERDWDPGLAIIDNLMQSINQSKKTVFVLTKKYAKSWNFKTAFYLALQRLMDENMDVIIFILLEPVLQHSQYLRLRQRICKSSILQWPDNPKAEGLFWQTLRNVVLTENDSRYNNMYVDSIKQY
Type: cell-based
Excerpt: TLR8 Stimulation Determined Using HEK-Blue Detection
This assay was designed for studying the stimulation of human TLR 8 protein in HEK-Blue hTLR8 tool cell line by monitoring the activation of NF-1B. HEK-Blue hTLR8 cells were obtained by co-transfection of the hTLR8 gene and an optimized secreted embryonic alkaline phosphatase (SEAP) reporter gene into HEK293 cells. The SEAP reporter gene was placed under the control of the IFN-β minimal promoter fused to five NF-κB and AP-1-binding sites. Stimulation with a TLR 8 ligand activates NF-κB and AP-1 which induce the expression of SEAP. Levels of SEAP can be easily determined with HEK-Blue Detection, a cell culture medium that allows for real-time detection of SEAP. HEK-Blue Detection contains all the nutrients necessary for cell growth and a specific SEAP color substrate. The hydrolysis of the substrate by SEAP produces a purple/blue color that can be measured with a spectrophotometer.
When growing to 50-80% confluency, HEK-Blue hTLR7/8 cells were plated into 96-well plate (costar 3599) at a density of 40000 cells/well. Then compounds were added with serial dilutions over 10 points with a 1 nM-10 uM final concentration range in 0.1% DMSO/HEK-Blue Detection. The plates were then incubated for 16 hr at 37° C. in 5% CO2. The optical density at 620-655 nm was read on BMG PHERAstar FSX instrument. The EC50 for each compound was determined by calculating the percentages of the maximum activation identified with Resiquimod or Motolimod.
`CCCCOc1nc(N)c2ncc(Cc3ccc4c(c3)CCN(C(C)C)C4)n2n1` [Compound A8, 2-butoxy-7-((2-isopropyl-1,2,3,4-tetrahydroisoquinolin-6-yl)methyl)imidazo[2,1-f][1,2,4]triazin-4-amine] was tested, and the EC50 was 187 nM.
For `CCCCOc1nc(N)c2ncc(Cc3ccc(CN4CCNCC4)cc3)n2n1` [Compound A10, 2-butoxy-7-(4-(piperazin-1-ylmethyl)benzyl)imidazo[2,1-f][1,2,4]triazin-4-amine], the EC50 was 572 nM.

The molecules below were run against T2, human TLR7 (Homo sapiens, UniProt Q9NYK1) (assay: HEK293-Blue hTLR7 reporter assay (QUANTI-BLUE, SEAP readout)). Settings: HEK-Blue-hTLR7 cells, QUANTI-BLUE assay (A1-A76), 24 hrs.
T2 sequence (Q9NYK1 27-1049): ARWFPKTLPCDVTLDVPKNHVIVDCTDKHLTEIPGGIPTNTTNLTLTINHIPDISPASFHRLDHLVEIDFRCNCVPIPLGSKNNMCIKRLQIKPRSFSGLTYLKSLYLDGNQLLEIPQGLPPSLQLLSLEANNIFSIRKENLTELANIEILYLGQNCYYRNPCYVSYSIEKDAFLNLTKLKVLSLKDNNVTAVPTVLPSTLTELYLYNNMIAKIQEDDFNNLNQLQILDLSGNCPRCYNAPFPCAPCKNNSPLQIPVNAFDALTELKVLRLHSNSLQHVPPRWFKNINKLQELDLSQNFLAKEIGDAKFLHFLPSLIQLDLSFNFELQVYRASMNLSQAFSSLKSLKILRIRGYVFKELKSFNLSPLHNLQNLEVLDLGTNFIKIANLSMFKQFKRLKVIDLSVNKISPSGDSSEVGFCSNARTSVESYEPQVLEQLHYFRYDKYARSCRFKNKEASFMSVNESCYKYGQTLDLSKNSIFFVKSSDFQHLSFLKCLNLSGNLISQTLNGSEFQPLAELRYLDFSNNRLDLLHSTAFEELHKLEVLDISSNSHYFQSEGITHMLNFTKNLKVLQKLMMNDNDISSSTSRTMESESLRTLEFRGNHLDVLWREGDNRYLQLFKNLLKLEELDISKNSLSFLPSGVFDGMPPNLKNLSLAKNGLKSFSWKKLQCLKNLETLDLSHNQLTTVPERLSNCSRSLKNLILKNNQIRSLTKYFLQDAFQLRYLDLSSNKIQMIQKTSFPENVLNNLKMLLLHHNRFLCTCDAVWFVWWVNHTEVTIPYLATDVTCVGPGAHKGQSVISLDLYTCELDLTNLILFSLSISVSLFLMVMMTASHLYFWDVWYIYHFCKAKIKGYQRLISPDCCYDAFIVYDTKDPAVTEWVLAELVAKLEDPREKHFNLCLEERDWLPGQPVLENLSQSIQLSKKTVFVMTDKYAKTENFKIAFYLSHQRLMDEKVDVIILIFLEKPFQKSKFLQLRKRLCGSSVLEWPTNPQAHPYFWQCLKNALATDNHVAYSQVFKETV
Type: cell-based
Design: host or cells: HEK293 (HEK-Blue-hTLR7)
Protocol: HEK293-Blue hTLR7 Reporter Assay:
HEK-Blue-hTLR7 cell line (Invivogen, Cat. No. hkb-htlr7) was designed so that the expression of the secreted embryonic alkaline phosphatase (SEAP) was induced by activating NF-κ and AP-1 via stimulating human TLR7 with TLR7 agonists.
HEK-Blue-hTLR7 cells were seeded at a density of 4×10^4 cells/well in a volume of 180 μL in a 96-well plate in DMEM (Cat. No. 11965-092) supplemented with 10% (v/v) heat-inactivated fetal bovine serum (FBS) (Gibco, 10099-1441), 100 U/ml penicillin and 100 μg/ml streptomycin (Gibco, 15140122) containing […], […] and 10% (v/v) heat-inactivated fetal bovine serum. The cells were settled for 5 hrs, then treated with increasing amounts of tested compounds at 37° C. for 24 hrs. Then 20 μL of the supernatant from each well was incubated with 180 uL Quanti-blue substrate solution at 37° C. for 10-30 mins before the activity of the SEAP was determined at 620-655 nm using a spectrophotometer. The EC50 value for each compound was calculated with GraphPad Prism software using the sigmoidal dose-response function.
With `CCCCOc1nc(N)c2ncc(Cc3ccc4c(c3)CCN(C(C)C)C4)n2n1` [Compound A8, 2-butoxy-7-((2-isopropyl-1,2,3,4-tetrahydroisoquinolin-6-yl)methyl)imidazo[2,1-f][1,2,4]triazin-4-amine] the EC50 was 3030 nM.
With `CCCCOc1nc(N)c2ncc(Cc3ccc(CN4CCNCC4)cc3)n2n1` [Compound A10, 2-butoxy-7-(4-(piperazin-1-ylmethyl)benzyl)imidazo[2,1-f][1,2,4]triazin-4-amine] the EC50 was 1170 nM.
`Nc1nc(O)nn2c(Cc3ccc(CN4CCCC4)cc3)cnc12` [Compound A65, 4-amino-7-(4-(pyrrolidin-1-ylmethyl)benzyl)imidazo[2,1-f][1,2,4]triazin-2-ol] was tested, and the EC50 was > 10000 nM.
In the case of `CCCCOc1nc(N)c2ncc(Cc3ccc(C4CCN(C)C4)cc3)n2n1` (stereo not drawn) [Compound A66, 2-butoxy-7-(4-(1-methylpyrrolidin-3-yl)benzyl)imidazo[2,1-f][1,2,4]triazin-4-amine], the EC50 is reported as 387 nM.
With `CCCCNc1nc(N)c2ncc(Cc3ccc(CN4CCCC4)cc3)n2n1` [Compound A67, N2-butyl-7-(4-(pyrrolidin-1-ylmethyl)benzyl)imidazo[2,1-f][1,2,4]triazine-2,4-diamine] the EC50 was 585 nM.
For `Nc1nc(OCc2cccnc2)nn2c(Cc3ccc(CN4CCCC4)cc3)cnc12` [Compound A68, 2-(pyridin-3-ylmethoxy)-7-(4-(pyrrolidin-1-ylmethyl)benzyl)imidazo[2,1-f][1,2,4]triazin-4-amine], the EC50 was > 10000 nM.
For `Nc1nc(OCCCC(F)(F)F)nn2c(Cc3ccc(CN4CCCC4)cc3)cnc12` [Compound A69, 7-(4-(pyrrolidin-1-ylmethyl)benzyl)-2-(4,4,4-trifluorobutoxy)imidazo[2,1-f][1,2,4]triazin-4-amine], the EC50 was 1240 nM.
`CCCCOc1nc(N)c2ncc(Cc3cccc(CN)c3)n2n1` [Compound A70, 7-(3-(aminomethyl)benzyl)-2-butoxyimidazo[2,1-f][1,2,4]triazin-4-amine] was tested, and the EC50 was > 10000 nM.
`CCCCOc1nc(N)c2ncc(Cc3ccc(CN4CCN(CCCO)CC4)cc3)n2n1` [Compound A71, 3-(4-(4-((4-amino-2-butoxyimidazo[2,1-f][1,2,4]triazin-7-yl)methyl)benzyl)piperazin-1-yl)propan-1-ol] showed an EC50 of 1170 nM.
With `CCCCOc1nc(N)c2ncc(Cc3cnc(OC4CCNCC4)c(C)c3)n2n1` [Compound A72, 2-butoxy-7-((5-methyl-6-(piperidin-4-yloxy)pyridin-3-yl)methyl)imidazo[2,1-f][1,2,4]triazin-4-amine] the EC50 was 462 nM.
In the case of `CCCCOc1nc(N)c2ncc(C(O)c3cc(OC)ccn3)n2n1` (stereo not drawn) [Compound A73, (4-amino-2-butoxyimidazo[2,1-f][1,2,4]triazin-7-yl)(4-methoxypyridin-2-yl)methanol], the EC50 is reported as > 10000 nM.
`CCCCOc1nc(N)c2ncc(C(O)c3ccccn3)n2n1` (stereo not drawn) [Compound A74, (4-amino-2-butoxyimidazo[2,1-f][1,2,4]triazin-7-yl)(pyridin-2-yl)methanol] was tested, and the EC50 was > 10000 nM.
For `CCCCOc1nc(N)c2ncc(C(C)c3ccc(CN4CCCC4)cc3)n2n1` (stereo not drawn) [Compound A75, 2-butoxy-7-(1-(4-(pyrrolidin-1-ylmethyl)phenyl)ethyl)imidazo[2,1-f][1,2,4]triazin-4-amine], the EC50 was > 10000 nM.
With `CCCCOc1nc(N)c2ncc(Cc3cnn(CC4CCCNC4)c3)n2n1` (stereo not drawn) [Compound A76, 2-butoxy-7-((1-(piperidin-3-ylmethyl)-1H-pyrazol-4-yl)methyl)imidazo[2,1-f][1,2,4]triazin-4-amine] the EC50 was > 10000 nM.

Same assay, conditions: HEK-Blue-hTLR7 cells, QUANTI-BLUE assay (C1-C6), 24 hrs
For `CCCCOc1nc(N)n2ncc(Cc3cccc(CN4CCCC4)c3)c2n1` [Compound C1, 2-butoxy-8-(3-(pyrrolidin-1-ylmethyl)benzyl)pyrazolo[1,5-a][1,3,5]triazin-4-amine], the EC50 was > 10000 nM.
In the case of `CCCCOc1nc(N)n2ncc(Cc3ccc(CN4CCCC4)cc3)c2n1` [Compound C2, 2-butoxy-8-(4-(pyrrolidin-1-ylmethyl)benzyl)pyrazolo[1,5-a][1,3,5]triazin-4-amine], the EC50 is reported as > 10000 nM.
In the case of `CCCCOc1cc2c(Cc3cnc(N4CCNCC4)c(Cl)c3)cnn2c(N)n1` [Compound C3, 5-butoxy-3-((5-chloro-6-(piperazin-1-yl)pyridin-3-yl)methyl)pyrazolo[1,5-c]pyrimidin-7-amine], the EC50 is reported as > 10000 nM.
In the case of `CCCCOc1cc(N)c2ncc(Cc3cnc(N4CCNCC4)c(C)c3)n2n1` [Compound C5, 6-butoxy-3-((5-methyl-6-(piperazin-1-yl)pyridin-3-yl)methyl)imidazo[1,2-b]pyridazin-8-amine], the EC50 is reported as > 10000 nM.
Work on `CCCCOc1nc(N)c2[nH]cc(Cc3cnc(N4CCNCC4)c(C)c3)c2n1` [Compound C6, 2-butoxy-7-((5-methyl-6-(piperazin-1-yl)pyridin-3-yl)methyl)-5H-pyrrolo [3,2-d]pyrimidin-4-amine] yielded an EC50 of 1080 nM.
